The values below are quoted from earlier work in patent US20030162237A1, “Methods of monitoring enzyme activity” (priority 2000, published 2003).

Like-named read-outs stand apart in the source and are kept apart here.

One data set relates to stem-loop IIB RNA. As to conditions: phosphorylated by PKC or HMK, versus unphosphorylated H6Rev.

Turning to `Nc1ncn([C@H]2C[C@H](O)[C@@H](CO)O2)c(=O)n1` [5-aza-2′-deoxycytidine], the “expression of malignancy suppressor genes” value with human tumor cell lines is given as “reactivate the expression of many of the malignancy suppressor genes”. As to “P-H6Rev: HIV type-1 Rev protein H6Rev (accession number P04325) phosphorylated by PKC or HMK”, the “binds more tightly to stem-loop IIB RNA than unphosphorylated H6Rev” value is on record as “ligand 7-fold more tightly than H6Rev” in the data set on stem-loop IIB RNA and 7 fold in the data set on stem-loop IIB RNA (listed as H6Rev).
